Measured values taken from patent US20120122820A1, “PRODRUGS AND THE USE THEREOF” (Bayer Schering Pharma Aktiengesellschaft, priority 2007, published 2012).
Converted amounts (≈) assume the structure as drawn. Counter-ions that a name gives are not always drawn.

Columns and labels:
[1] = Determination of the solubility (24 h shaking at room temperature, ultracentrifugation, HPLC); format: physicochemical; conditions: thermodynamic from solid
Protocol: The test substance is suspended in water or dilute hydrochloric acid (pH 4) [Examples 1-21] or in 5% strength aqueous dextrose solution [Examples 22-40]. This suspension is shaken at room temperature for 24 h. After ultracentrifugation at 224 000 g for 30 min, the supernatant is diluted with DMSO and analyzed by HPLC. A two-point calibration plot of the test compound in DMSO is used for quantification.
Agilent 1100 with DAD (G1315A), quat. pump (G1311A), autosampler CTC HTS PAL, degasser (G1322A) and column thermostat (G1316A); column: Phenomenex Gemini C18, 5 μm, 50 mm×2 mm; temperature: 40° C.; eluent A: water/phosphoric acid pH 2, eluent B: acetonitrile; flow rate: 0.7 ml/min; gradient: 0-0.5 min 85% A, 15% B; ramp 0.5-3 min 10% A, 90% B; 3-3.5 min 10% A, 90% B; ramp 3.5-4 min 85% A, 15% B; 4-5 min 85% A, 15% B.
Agilent 1100 with DAD (G1315A), quat. pump (G1311A), autosampler CTC HTS PAL, degasser (G1322A) and column thermostat (G1316A); column: VDSoptilab Kromasil 100 C18, 3.5 μm, 60 mm×2.1 mm; temperature: 30° C.; eluent A: water+5 ml of perchloric acid/liter, eluent B: acetonitrile; flow rate: 0.75 ml/min; gradient: 0-0.5 min 98% A, 2% B; ramp 0.5-4.5 min 10% A, 90% B; 4.5-6 min 10% A, 90% B; ramp 6.5-6.7 min 98% A, 2% B; 6.7-7.5 min 98% A, 2% B.

[2] = Stability in buffer at various pH values; format: physicochemical
Protocol: 0.3 mg of the test substance is weighed into a 2 ml HPLC vial and 0.5 ml of acetonitrile or acetonitrile/DMSO (9:1) is added. The substance is dissolved by putting the sample vessel in an ultrasonic bath for about 10 seconds. Then 0.5 ml of the respective (buffer) solution is added, and the sample is again treated in the ultrasonic bath.
• pH 4: 1 liter of Millipore water is adjusted to pH 4.0 with 1 N hydrochloric acid; • pH 5: 0.096 mol of citric acid and 0.2 mol of sodium hydroxide ad 1 liter of water; • pH 7.4: 90.0 g of sodium chloride, 13.61 g of potassium dihydrogen phosphate and 83.35 g of 1 N sodium hydroxide solution are made up to 1 liter with water; this solution is then further diluted 1:10 with Millipore water. • pH 8: 0.013 mol of borax and 0.021 mol of hydrochloric acid ad 1 liter of water.
5 μl portions of the sample solution are analyzed by HPLC for their content of unchanged test substance, and of parent substance (A) produced, every hour over a period of 24 hours at 37° C. The percentage areas of the appropriate peaks are used for quantification.
HPLC method for Examples 1-21:
Agilent 1100 with DAD (G1314A), binary pump (G1312A), autosampler (G1329A), column oven (G1316A), thermostat (G1330A); column: Kromasil 100 C18, 60 mm×2.1 mm, 3.5 μm; column temperature: 30° C.; eluent A: water+5 ml of perchloric acid/liter, eluent B: acetonitrile; gradient: 0-1.0 min 98% A, 2% B; 1.0-9.0 min 2% A, 98% B; 9.0-13.0 min 2% A, 98% B; 13.0-13.5 min 98% A, 2% B; 13.5-15.0 min 98% A, 2% B; flow rate: 0.75 ml/min; UV detection: 210 nm.
HPLC method for Examples 22-40:
The ratios of the peak areas (F) at the respective time points in relation to the peak areas at the starting time are shown in Table 3 for representative exemplary embodiments: […]

[3] = aqueous buffer, dilute hydrochloric acid (pH 4)
[4] = saline or isotonic, 5% strength aqueous dextrose solution

| Compound | solubility at 24 h [1, 3] | solubility at 24 h [1, 4] | % test substance after 4 h [F(t = 4 h) × 100/F(t = 0 h)] ([2]; pH 4, 37° C.) | % test substance after 24 h [F(t = 24 h) × 100/F(t = 0 h)] ([2]; pH 4, 37° C.) | % test substance after 4 h [F(t = 4 h) × 100/F(t = 0 h)] ([2]; pH 7.4, 37° C.) | % test substance after 24 h [F(t = 24 h) × 100/F(t = 0 h)] ([2]; pH 7.4, 37° C.) | % test substance after 4 h [F(t = 4 h) × 100/F(t = 0 h)] ([2]; pH 5, 37° C.) | % test substance after 24 h [F(t = 24 h) × 100/F(t = 0 h)] ([2]; pH 5, 37° C.) |
| --- | --- | --- | --- | --- | --- | --- | --- | --- |
| N#Cc1c(N)nc(SCc2csc(-c3ccc(Cl)cc3)n2)c(C#N)c1-c1ccc(OCCOC(=O)[C@@H](N)CO)cc1 [Example 11, 2-{4-[2-Amino-6-({[2-(4-chlorophenyl)-1,3-thiazol-4-yl]methyl}thio)-3,5-dicyanopyridin-4-yl]-phenoxy}ethyl L-serinate hydrochloride] | 70 µg/mL |  |  |  |  |  |  |  |
| N#Cc1c(N)nc(SCc2csc(-c3ccc(Cl)cc3)n2)c(C#N)c1-c1ccc(OCCOC(=O)/C=C\C(=O)O)cc1 [Example 31, 2-Hydroxy-N,N,N-trimethylethanaminium (2Z)-4-(2-{4-[2-amino-6-({[2-(4-chlorophenyl)-1,3-thiazol-4-yl]methyl}thio)-3,5-dicyanopyridin-4-yl]phenoxy}ethoxy)-4-oxobut-2-enoate] |  | 4 µg/mL (≈ 6.47 µM) |  |  |  |  |  |  |
| N#Cc1c(N)nc(SCc2csc(-c3ccc(Cl)cc3)n2)c(C#N)c1-c1ccc(OCCOC(=O)[C@@H](N)CN)cc1 [Example 40, 2-{4-[2-Amino-6-({[2-(4-chlorophenyl)-1,3-thiazol-4-yl]methyl}sulfanyl)-3,5-dicyanopyridin-4-yl]-phenoxy}ethyl-3-amino L-alaninate dihydrochloride] |  | > 500 µg/mL | 99% | 94% | 90% | 53% |  |  |
| CC(C)[C@H](N)C(=O)OCCOc1ccc(-c2c(C#N)c(NC(=O)CCCN(C)C)nc(SCc3csc(-c4ccc(Cl)cc4)n3)c2C#N)cc1 [Example 37, 2-{4-[2-({[2-(4-Chlorophenyl)-1,3-thiazol-4-yl]methyl}thio)-3,5-dicyano-6-{[4-(dimethylamino)-butanoyl]amino}pyridin-4-yl]phenoxy}ethyl L-valinate bistrifluoracetate] |  | 160 µg/mL (≈ 218 µM) | 100% | 100% | 97% | 84% |  |  |
| CS(=O)(=O)O.N#Cc1c(N)nc(SCc2csc(-c3ccc(Cl)cc3)n2)c(C#N)c1-c1ccc(OCCOC(=O)[C@@H](N)Cc2ccccc2)cc1 [Example 18, 2-{4-[2-Amino-6-({[2-(4-chlorophenyl)-1,3-thiazol-4-yl]methyl}thio)-3,5-dicyanopyridin-4-yl]-phenoxy}ethyl L-phenylalaninate methanesulfonic acid salt] | 60 µg/mL |  |  |  |  |  |  |  |
| N#Cc1c(NC(=O)CCCN)nc(SCc2csc(-c3ccc(Cl)cc3)n2)c(C#N)c1-c1ccc(OCCOC(=O)CCCN)cc1 [Example 25, 2-(4-{2-[(4-Aminobutanoyl)amino]-6-({[2-(4-chlorophenyl)-1,3-thiazol-4-yl]methyl}thio)-3,5-di-cyanopyridin-4-yl}phenoxy)ethyl 4-aminobutanoate dihydrochloride] |  | 730 µg/mL | 100% | 100% | 41% | 4% |  |  |
| N#Cc1c(N)nc(SCc2csc(-c3ccc(Cl)cc3)n2)c(C#N)c1-c1ccc(OCCOC(=O)[C@@H](N)CCN)cc1 [Example 24, 2-{4-[2-Amino-6-({[2-(4-chlorophenyl)-1,3-thiazol-4-yl]methyl}thio)-3,5-dicyanopyridin-4-yl]-phenoxy}ethyl (2S)-2,4-diaminobutanoate dihydrochloride] |  | > 500 µg/mL | 100% | 99% |  |  | 96% | 74% |
| N#Cc1c(N)nc(SCc2csc(-c3ccc(Cl)cc3)n2)c(C#N)c1-c1ccc(OCCOC(=O)[C@@H]2CCCN2)cc1 [Example 9, 2-{4-[2-Amino-6-({[2-(4-chlorophenyl)-1,3-thiazol-4-yl]methyl}thio)-3,5-dicyanopyridin-4-yl]-phenoxy}ethyl L-prolinate hydrochloride] | 50 µg/mL |  |  |  |  |  |  |  |
| N#Cc1c(NC(=O)CCN)nc(SCc2csc(-c3ccc(Cl)cc3)n2)c(C#N)c1-c1ccc(OCCOC(=O)CCN)cc1 [Example 26, 2-{4-[2-(beta-Alanylamino)-6-({[2-(4-chlorophenyl)-1,3-thiazol-4-yl]methyl}thio)-3,5-dicyano-pyridin-4-yl]phenoxy}ethyl beta-alaninate dihydrochloride] |  | > 500 µg/mL | 100% | 100% | 11% | 2% |  |  |
| N#Cc1c(N)nc(SCc2csc(-c3ccc(Cl)cc3)n2)c(C#N)c1-c1ccc(OCCOC(=O)[C@@H](N)Cc2c[nH]cn2)cc1 [Example 33, 2-{4-[2-Amino-6-({[2-(4-chlorophenyl)-1,3-thiazol-4-yl]methyl}thio)-3,5-dicyanopyridin-4-yl]-phenoxy}ethyl L-histidinate dihydrochloride] |  | 195 µg/mL |  |  |  |  |  |  |
| N#Cc1c(N)nc(SCc2csc(-c3ccc(Cl)cc3)n2)c(C#N)c1-c1ccc(OCCOC(=O)CN)cc1 [Example 6, 2-{4-[2-Amino-6-({[2-(4-chlorophenyl)-1,3-thiazol-4-yl]methyl}thio)-3,5-dicyanopyridin-4-yl]-phenoxy}ethyl glycinate dihydrochloride] | 90 µg/mL |  |  |  |  |  |  |  |
| N#Cc1c(N)nc(SCc2csc(-c3ccc(Cl)cc3)n2)c(C#N)c1-c1ccc(OCCOC(=O)[C@@H](N)CCCNC(=N)N)cc1 [Example 38, 2-{4-[2-Amino-6-({[2-(4-chlorophenyl)-1,3-thiazol-4-yl]methyl}sulfanyl)-3,5-dicyanopyridin-4-yl]-phenoxy}ethyl L-argininate trihydrochloride] |  | > 500 µg/mL | 100% | 100% | 100% | 94% |  |  |
| Cc1ccc(S(=O)(=O)[O-])cc1.N#Cc1c(N)nc(SCc2csc(-c3ccc(Cl)cc3)n2)c(C#N)c1-c1ccc(OCCOC(=O)[C@@H]2CCC[NH2+]2)cc1 [Example 10, 2-{4-[2-Amino-6-({[2-(4-chlorophenyl)-1,3-thiazol-4-yl]methyl}thio)-3,5-dicyanopyridin-4-yl]-phenoxy}ethyl L-prolinate p-toluenesulfonic acid salt] | 8 µg/mL |  |  |  |  |  |  |  |
| N#Cc1c(N)nc(SCc2csc(-c3ccc(Cl)cc3)n2)c(C#N)c1-c1ccc(OCCOC(=O)[C@H](N)CCCN)cc1 [Example 39, 2-{4-[2-Amino-6-({[2-(4-chlorophenyl)-1,3-thiazol-4-yl]methyl}sulfanyl)-3,5-dicyanopyridin-4-yl]-phenoxy}ethyl D-ornithinate dihydrochloride] |  | > 500 µg/mL | 100% | 100% | 0% | 0% |  |  |
